Assay [1] relates to A549 (human lung carcinoma cell line). In words: Glo assay of A549 cells (Table 3; ProteasomeGlo plating scheme). Format: cell-based. To be noted: Homo sapiens; A549 cells; read-out: PGLo A549. In outline: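 Luminescent read-out of cellular chymotrypsin-like proteasome activity: cells exposed to compound 105 min at 37° C., 5% CO2, then given Suc-LLVY-Glo reagent, shaken 2-5 min and kept dark 10-15 min before reading. Values are IC50 [nM].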

Assay [2] has as its target T1, β5 subunit of the human constitutive proteasome (CPS) (Homo sapiens, UniProt P28074).
T1 construct: purchased Boston Biochem E-360
In words: β5 inhibition assay, human constitutive proteasome (Suc-LLVY-AMC). Format: biochemical. Particulars: IC50 class, Suc-LLVY-AMC substrate. The method, then:
The enzymatic activity of the β5 subunit of the human constitutive proteasome (CPS) is analyzed. In another assay, which differs from the assay of the human constitutive proteasome only in using the human immunoproteasome (IPS) the enzymatic activity of the β5 subunit of the human immunoproteasome (IPS) is analyzed. […] Inhibition is indicated as IC50 [nM] (“-”=not measured).

The subject of a further assay is hPMBC. The assay can be described thus: Chymotrypsin-like ProteasomeGlo assay in hPBMC. Particulars: Homo sapiens; read-out: Pglo hPBMC. Format: cell-based. In outline:
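B cells isolated from human PBMC (buffy coats, density gradient, magnetic isolation). Cells treated with compound for 105 min at 37 °C, with staurosporine and DMSO included. Chymotrypsin-like proteasome activity read by luminescence with Suc-LLVY-Glo substrate to derive IC50.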

SMILES strings stand for the structures. Some results are limits rather than exact numbers.

These results are taken from patent publication US20240415819A1, “MACROCYCLIC COMPOUNDS AS PROTEASOME SUBUNIT BETA TYPE-5 INHIBITORS” (Lead Discovery Center GmbH, priority 2021, published 2024).

In the case of `Cc1ccc2cc1CNC(=O)[C@H](CCc1ccccc1)NC(=O)[C@@H](NC(=O)Cc1ccccc1F)CC(=O)N1CCCC(CCO2)C1` (stereo partly drawn) [Compound 333, 2-(2-fluorophenyl)-N-((9S,12S)-5^4-methyl-8,11,14-trioxo-9-phenethyl-4-oxa-7,10-diaza-1(3,1)-piperidina-5(1,3)-benzenacyclotetradecaphane-12-yl)acetamide], the IC50 (in assay [1]; in assay [2]; with hPMBC) was less than 100 nM throughout.

As for `Cc1ccc2cc1CNC(=O)[C@H](CCc1ccccc1)NC(=O)[C@@H](NC(=O)Cc1nc(-c3ccncc3)n[nH]1)CC(=O)N1CCCC(CCO2)C1` (stereo partly drawn) [Compound 329, N-((9S,12S)-5^4-methyl-8,11,14-trioxo-9-phenethyl-4-oxa-7,10-diaza-1(3,1)-piperidina-5(1,3)-benzenacyclotetradecaphane-12-yl)-2-(3-(pyridin-4-yl)-1H-1,2,4-triazol-5-yl)acetamide], the values for the IC50 (in assay [1]; in assay [2]; in the assay on hPMBC) were 100 to 500 nM, less than 100 nM and 100 to 500 nM, respectively.

Regarding `CC(=O)N[C@H]1CC(=O)N2CCCC(CCOc3ccc(C)c(c3)CNC(=O)C(CCc3cccnc3)NC1=O)C2` (stereo partly drawn) [Compound 549, N-((12S)-5^4-methyl-8,11,14-trioxo-9-(2-(pyridin-3-yl)ethyl)-4-oxa-7,10-diaza-1(3,1)-piperidina-5(1,3)-benzenacyclotetradecaphane-12-yl)acetamide], the IC50 in assay [1] is 100 to 500 nM; in assay [2], less than 100 nM; with hPMBC, less than 100 nM.

On to `CC(=O)N[C@H]1CC(=O)N2CCCC(CCOc3ccc(C)c(c3)CNC(=O)C(c3ccc4ncccc4c3)NC1=O)C2` (stereo partly drawn) [Compound 554, N-((12S)-5^4-methyl-8,11,14-trioxo-9-(quinolin-6-yl)-4-oxa-7,10-diaza-1(3,1)-piperidina-5(1,3)-benzenacyclotetradecaphane-12-yl)acetamide], for which the figures for the IC50 (in assay [1]; in assay [2]; in the assay with hPMBC) were 100 to 500 nM, less than 100 nM and 100 to 500 nM, respectively.

Turning to `Cc1n[nH]c(CC(=O)N[C@H]2CC(=O)N3CCCC(CCOc4ccc(C)c(c4)CNC(=O)[C@H](CCc4ccccc4)NC2=O)C3)n1` (stereo partly drawn) [Compound 332, 2-(3-methyl-1H-1,2,4-triazol-5-yl)-N-((9S,12S)-5^4-methyl-8,11,14-trioxo-9-phenethyl-4-oxa-7,10-diaza-1(3,1)-piperidina-5(1,3)-benzenacyclotetradecaphane-12-yl)acetamide], the IC50 (in assay [1]; in assay [2]; with hPMBC) was less than 100 nM each time.

With `COc1cccc(CC(=O)N[C@H]2CC(=O)N3CCCC(CCOc4ccc(C)c(c4)CNC(=O)C(c4cnn(C)c4)NC2=O)C3)c1` (stereo partly drawn) [Compound 362, 2-(3-methoxyphenyl)-N-((12S)-5^4-methyl-9-(1-methyl-1H-pyrazol-4-yl)-8,11,14-trioxo-4-oxa-7,10-diaza-1(3,1)-piperidina-5(1,3)-benzenacyclotetradecaphane-12-yl)acetamide], the IC50 (in assay [1]; in assay [2]; in the assay on hPMBC) was less than 100 nM in each case.

With `Cc1ccc2cc1CNC(=O)C(c1cnn(C)c1)NC(=O)[C@@H](NC(=O)[C@@H](C)c1ccccc1)CC(=O)N1CCCC(CCO2)C1` (stereo partly drawn) [Compound 359, (2S)-N-((12S)-5^4-methyl-9-(1-methyl-1H-pyrazol-4-yl)-8,11,14-trioxo-4-oxa-7,10-diaza-1(3,1)-piperidina-5(1,3)-benzenacyclotetradecaphane-12-yl)-2-phenylpropanamide], the IC50 (in assay [1]; in assay [2]; in the assay with hPMBC) was less than 100 nM in each case.

As for `CC(=O)N[C@H]1CC(=O)N2CCCC(CCOc3ccc(C)c(c3)CNC(=O)C(c3cn[nH]c3)NC1=O)C2` (stereo partly drawn) [Compound 562, N-((12S)-5^4-methyl-8,11,14-trioxo-9-(1H-pyrazol-4-yl)-4-oxa-7,10-diaza-1(3,1)-piperidina-5(1,3)-benzenacyclotetradecaphane-12-yl)acetamide], the IC50 in assay [1] was 100 to 500 nM; in assay [2], less than 100 nM; in the assay on hPMBC it was less than 100 nM.

As to `CC(=O)N[C@H]1CC(=O)N2CCCC(CCOc3ccc(C)c(c3)CNC(=O)C(c3cc(C)sn3)NC1=O)C2` (stereo partly drawn) [Compound 556, N-((12S)-5^4-methyl-9-(5-methylisothiazol-3-yl)-8,11,14-trioxo-4-oxa-7,10-diaza-1(3,1)-piperidina-5(1,3)-benzenacyclotetradecaphane-12-yl)acetamide], the IC50 (in assay [1]; in assay [2]; in the assay with hPMBC) was less than 100 nM each time.

Turning to `Cc1ccc2cc1CNC(=O)[C@H](CCc1ccccc1)NC(=O)[C@@H](NC(=O)CC(C)(C)C)CC(=O)N1CCCC(CCO2)C1` (stereo partly drawn) [Compound 28, 3,3-dimethyl-N-((9S,12S)-5^4-methyl-8,11,14-trioxo-9-phenethyl-4-oxa-7,10-diaza-1(3,1)-piperidina-5(1,3)-benzenacyclotetradecaphane-12-yl)butanamide], the values for the IC50 (in assay [1]; in assay [2]; with hPMBC) were less than 100 nM, less than 100 nM and 100 to 500 nM, respectively.

On to `CC(=O)N[C@H]1CC(=O)N2CCCC(CCOc3ccc(C)c(c3)CNC(=O)C(c3coc(C)n3)NC1=O)C2` (stereo partly drawn) [Compound 553, N-((12S)-5^4-methyl-9-(2-methyloxazol-4-yl)-8,11,14-trioxo-4-oxa-7,10-diaza-1(3,1)-piperidina-5(1,3)-benzenacyclotetradecaphane-12-yl)acetamide], for which the IC50 is 100 to 500 nM in assay [1], less than 100 nM in assay [2] and less than 100 nM with hPMBC.

As for `Cc1ccc2cc1CNC(=O)C(CCc1ccncc1)NC(=O)[C@@H](NC(=O)OCc1ccccc1)CC(=O)N1CCCC(CCO2)C1` (stereo partly drawn) [Compound 336, benzyl ((12S)-5^4-methyl-8,11,14-trioxo-9-(2-(pyridin-4-yl)ethyl)-4-oxa-7,10-diaza-1(3,1)-piperidina-5(1,3)-benzenacyclotetradecaphane-12-yl)carbamate], the IC50 (in assay [1]; in assay [2]; with hPMBC) was less than 100 nM each time.

For the compound `Cc1ccc2cc1CNC(=O)[C@H](CCc1ccccc1)NC(=O)[C@@H](NC(=O)Cc1ccccc1C)CC(=O)N1CCCC(CCO2)C1` (stereo partly drawn) [Compound 373, N-((9S,12S)-5^4-methyl-8,11,14-trioxo-9-phenethyl-4-oxa-7,10-diaza-1(3,1)-piperidina-5(1,3)-benzenacyclotetradecaphane-12-yl)-2-(o-tolyl)acetamide], the IC50 (in assay [1]; in assay [2]; in the assay on hPMBC) was less than 100 nM each time.

With `Cc1ccc2cc1CNC(=O)[C@H](CCc1ccccc1)NC(=O)[C@@H](NC(=O)Cc1csc(N)n1)CC(=O)N1CCCC(CCO2)C1` (stereo partly drawn) [Compound 302, 2-(2-aminothiazol-4-yl)-N-((9S,12S)-5^4-methyl-8,11,14-trioxo-9-phenethyl-4-oxa-7,10-diaza-1(3,1)-piperidina-5(1,3)-benzenacyclotetradecaphane-12-yl)acetamide], the IC50 (in assay [1]; in assay [2]; with hPMBC) was less than 100 nM each time.

With `Cc1ccc2cc1CNC(=O)C(CCc1cnccn1)NC(=O)[C@@H](NC(=O)C1(c3ccc(N)cc3)CC1)CC(=O)N1CCCC(CCO2)C1` (stereo partly drawn) [Compound 371, 1-(4-aminophenyl)-N-((9S,12S)-5^4-methyl-8,11,14-trioxo-9-(2-(pyrazin-2-yl)ethyl)-4-oxa-7,10-diaza-1(3,1)-piperidina-5(1,3)-benzenacyclotetradecaphane-12-yl)cyclopropane-1-carboxamide], the IC50 (in assay [1]; in assay [2]; in the assay with hPMBC) was less than 100 nM in each case.

Consider `Cc1ccc2cc1CNC(=O)[C@H](CCc1ccccc1)NC(=O)[C@@H](NC(=O)OCc1ccccc1)CCC(=O)N1CCC(CO2)C1` (stereo partly drawn) [Compound 349, benzyl ((8S,11S)-4^4-methyl-7,10,14-trioxo-8-phenethyl-3-oxa-6,9-diaza-1(3,1)-pyrrolidina-4(1,3)-benzenacyclotetradecaphane-11-yl)carbamate], for which the IC50 is 100 to 500 nM in assay [1], less than 100 nM in assay [2] and less than 100 nM with hPMBC.

As to `Cc1cc2cc(c1C)CNC(=O)C(c1cnn(C)c1)NC(=O)CCC(=O)N1CCCC(CCO2)C1` (stereo not drawn) [Compound 355, 5^4,5^5-dimethyl-9-(1-methyl-1H-pyrazol-4-yl)-4-oxa-7,10-diaza-1(3,1)-piperidina-5(1,3)-benzenacyclotetradecaphane-8,11,14-trione], the IC50 was greater than 5000 nM in assay [1], 1000 to 5000 nM in assay [2] and less than 100 nM with hPMBC.

Regarding `CC(=O)N[C@H]1CC(=O)N2CCCC(CCOc3ccc(C)c(c3)CNC(=O)C(c3cnn(-c4ccccc4)c3)NC1=O)C2` (stereo partly drawn) [Compound 559, N-((12S)-5^4-methyl-8,11,14-trioxo-9-(1-phenyl-1H-pyrazol-4-yl)-4-oxa-7,10-diaza-1(3,1)-piperidina-5(1,3)-benzenacyclotetradecaphane-12-yl)acetamide], the IC50 is 100 to 500 nM in assay [1], less than 100 nM in assay [2] and less than 100 nM in the assay with hPMBC.

Regarding `Cc1ccc2cc1CNC(=O)[C@H](CCc1ccccc1)NC(=O)[C@@H](NC(=O)C(C)c1ccc(N)cc1)CC(=O)N1CCCC(CCO2)C1` (stereo partly drawn) [Compound 309, 2-(4-aminophenyl)-N-((9S,12S)-5^4-methyl-8,11,14-trioxo-9-phenethyl-4-oxa-7,10-diaza-1(3,1)-piperidina-5(1,3)-benzenacyclotetradecaphane-12-yl)propanamide], the IC50 (in assay [1]; in assay [2]; in the assay with hPMBC) was less than 100 nM throughout.
